Assay results reported in the supplement of paper PMC13380429.
± gives the standard deviation of the averaged measurements.

What was measured:
Conditions in all cases: 72 h
[1] = system: Calu-3; assay: cell viability relative to DMSO; higher = less toxic
[2] = system: U2OS; assay: as above
[3] = system: Vero E6; assay: as above
[4] = system: HepG2; assay: as above
[5] = system: Caco-2; assay: as above
[6] = system: Calu-3; assay: drug sensitivity score (DSS) for viability; higher = more toxic; extreme values may be limits of the assay
[7] = system: U2OS; assay: as above
[8] = system: Vero E6; assay: as above
[9] = system: HepG2; assay: as above
[10] = system: Caco-2; assay: as above
[11] = system: Calu-3; assay: relative viability EC50 (midpoint between 100% and the lowest measured viability); higher = less toxic
[12] = system: U2OS; assay: as above
[13] = system: Vero E6; assay: as above
[14] = system: HepG2; assay: as above
[15] = system: Caco-2; assay: as above

SMILES	cell viability ([1]; 1 nM) [%]	cell viability ([1]; 10 nM) [%]	cell viability ([1]; 100 nM) [%]	cell viability ([1]; 1000 nM) [%]	cell viability ([1]; 10000 nM) [%]	cell viability ([2]; 1 nM) [%]	cell viability ([2]; 10 nM) [%]	cell viability ([2]; 100 nM) [%]	cell viability ([2]; 1000 nM) [%]	cell viability ([2]; 10000 nM) [%]	cell viability ([3]; 1 nM) [%]	cell viability ([3]; 10 nM) [%]	cell viability ([3]; 100 nM) [%]	cell viability ([3]; 1000 nM) [%]	cell viability ([3]; 10000 nM) [%]	cell viability ([4]; 1 nM) [%]	cell viability ([4]; 10 nM) [%]	cell viability ([4]; 100 nM) [%]	cell viability ([4]; 1000 nM) [%]	cell viability ([4]; 10000 nM) [%]	cell viability ([5]; 1 nM) [%]	cell viability ([5]; 10 nM) [%]	cell viability ([5]; 100 nM) [%]	cell viability ([5]; 1000 nM) [%]	cell viability ([5]; 10000 nM) [%]	drug sensitivity score [6]	drug sensitivity score [7]	drug sensitivity score [8]	drug sensitivity score [9]	drug sensitivity score [10]	relative viability EC50 [11] [µM]	relative viability EC50 [12] [µM]	relative viability EC50 [13] [µM]	relative viability EC50 [14] [µM]	relative viability EC50 [15] [µM]
CCCCCCCCCC(=O)OCCN1CCN(CCCN2c3ccccc3Sc3ccc(C(F)(F)F)cc32)CC1 [fluphenazine-decanoate]	101	95.8	98.5	107	91.6	97.2	100	99	100	96.9	104	105	96.3	106	105	95.5	97.4	96.9	93.7	108	111	84.8	96.3	98	92.1	0	0	0	0	0	> 10	> 10	> 10	> 10	> 10
O=C1NCN(c2ccccc2)C12CCN(CCCC(c1ccc(F)cc1)c1ccc(F)cc1)CC2 [fluspirilene]	101	104	99.4	105	105	98.4	103	98.1	105	90.5	115	98.1	103	103	93.7	112	100	101	88.5	84.8	88.3	106	80.5	116	99	0	0	0	1.1	0	> 10	> 10	> 10	> 10	> 10
CC(C)=CCC[C@]1(C)C=Cc2c(O)c3c(c(CC=C(C)C)c2O1)O[C@]12C(=C[C@@H]4C[C@H]1C(C)(C)O[C@@]2(C/C=C(/C)C(=O)O)C4=O)C3=O [gambogic-acid]	100	138	111	4.7	-0.3	98.8	102	94	-0.1	-0.3	105	104	106	6	-0.3	97.6	93.6	99.3	15.6	-0.4	90.7	102	94.9	1.9	-0.1	16.6	18.8	16.7	15.4	18.5	0.404	0.269	0.4	0.51	0.288
CC1C(=O)OC2C(O)C34C5CC(C(C)(C)C)C36C(OC(=O)C6O)OC4(C(=O)O5)C12O (stereo not given) [ginkgolide-B]	106	90.8	103	98.6	106	106	102	106	96.2	104	100	101	97.1	98.9	100	110	98.4	99	97.3	97.5	98	93.4	102	93.8	92.8	0	0	0	0	0	> 10	> 10	> 10	> 10	> 10
CCn1ccnc1CC1COc2ccccc2O1 (stereo not given) [imiloxan]	97.9	98.5	99.7	107	94.4	101	98.4	99.2	101	104	92.5	99.8	95.9	90.7	102	90.6	91.6	94.5	93.2	116	106	87.6	92.9	104	102	0	0	0	0	0	> 10	> 10	> 10	> 10	> 10
C1=Cc2cccc(OCC3CNCCO3)c2C1 (stereo not given) [indeloxazine]	105	93.8	104	97.1	97.8	95.2	97.8	101	99.3	96.8	104	106	102	102	93.8	105	111	104	93.1	91.7	101	94.2	86.4	88.9	90.3	0	0	0	0	2.3	> 10	> 10	> 10	> 10	> 10
O=C(O)CCCN1C(=O)c2cccc3cccc(c23)C1=O [isodibut]	99.1	97.8	96.9	94.8	114	99.3	96.6	97.7	97.6	95.7	97	97.9	103	101	99.1	96.1	95.8	104	105	98.9	105	90.9	93.6	98.6	95.4	0	0	0	0	0	> 10	> 10	> 10	> 10	> 10
O=C(/C=C/c1ccc(O)cc1)c1ccc(O)cc1O [isoliquiritigenin]	103	93.7	107	107	112	97.3	99.7	103	98.2	94.9	99.4	107	93.6	104	113	102	107	91.9	101	96.5	102	92.1	95.6	92.2	86.4	0	0	0	0	0.2	> 10	> 10	> 10	> 10	> 10
CCN(C(=O)c1c(O)c2c(Cl)cccc2n(C)c1=O)c1ccccc1 [laquinimod]	110	87.9	91.5	108	102	96.9	98.9	99.2	97.6	96.9	99.8	99.9	92.8	92.5	91.4	102	98.6	103	93.4	92.8	90.3	88.5	98.2	106	91.5	0	0	0	0	0	> 10	> 10	> 10	> 10	> 10
CC(C)(C)NC[C@H](O)COc1cccc2c1CCCC2=O [levobunolol]	99.2 ± 9.6	102 ± 0.99	93.9 ± 3.1	103 ± 3.2	104.25 ± 0.071	97.15 ± 0.78	102 ± 2	101.5 ± 0.21	101.3 ± 0.78	103 ± 0.21	105 ± 6.1	94.6 ± 2.8	95.6 ± 5.7	90.5 ± 3.1	101 ± 3.8	100 ± 4.1	95.8 ± 2.8	112 ± 2	94.8 ± 4.3	97.9 ± 2.4	88 ± 1.8	94.8 ± 5.9	96 ± 4.7	101.3 ± 0.64	97.2 ± 1.1	0	0	0	0	0	> 10	> 10	> 10	> 10	> 10
CC#CCn1c(N2CCC[C@@H](N)C2)nc2c1c(=O)n(Cc1nc(C)c3ccccc3n1)c(=O)n2C [linagliptin]	95.9	103	99.2	97.9	102	98.4	99.8	98.9	107	96.1	97.1	106	105	84.4	110	95.3	93.8	95.7	103	102	103	105	89.9	91.4	102	0	0	0	0	0	> 10	> 10	> 10	> 10	> 10
CC(C)CCNC(=O)[C@H](CC(C)C)NC(=O)[C@H]1O[C@@H]1C(=O)O [loxistatin-acid]	101	95.8	101	91.5	105	99.4	98.7	101	101	105	103	107	99.4	102	101	93.4	98.3	104	103	104	103	95.6	93.1	99	100	0	0	0	0	0	> 10	> 10	> 10	> 10	> 10
Nc1ccccc1NC(=O)c1ccc(CNc2nccc(-c3cccnc3)n2)cc1 [mocetinostat]	102	89.6	86.8	40	17.7	98.4	97.2	100	64.2	0.3	95.4	94.7	78	43.4	-0.1	102	100	88.9	44.2	1.1	95.6	100	102	64.4	17.7	13	10.4	13.9	12.5	9.2	0.405	1.26	0.567	0.756	1.12
CCn1cc(C(=O)O)c(=O)c2ccc(C)nc21 [nalidixic-acid]	96.8	89	100	93	102	100	95.8	100	98.3	104	113	107	104	101	89.4	106	108	90	102	95.6	96.3	94.4	93.2	99.9	96.8	0	0	0	0	0	> 10	> 10	> 10	> 10	> 10
CC(C)NCC(O)c1ccc([N+](=O)[O-])cc1 (stereo not given) [nifenalol]	101	96.8	103	98.4	108	93.8	100	102	99.2	99.7	107	106	102	93.3	89.6	98.3	101	103	108	106	87.2	99.9	92.7	85.1	94	0	0	0	0	0	> 10	> 10	> 10	> 10	> 10
CC1C=CC=CCCC=CC=CC=CC=CC(OC2OC(C)C(O)C(N)C2O)CC2OC(O)(CC(O)C(O)CCC(O)CC(O)CC(O)CC(=O)OC(C)C(C)C1O)CC(O)C2C(=O)O (stereo not given) [nystatin]	106	84.5	94.6	104	109	102	99.3	99	102	104	92.9	93.6	94.7	96.1	107	96.7	101	98.7	96.8	110	98.4	98.5	97.4	97.4	103	0	0	0	0	0	> 10	> 10	> 10	> 10	> 10
C[C@@H](O)[C@@H]1NC(=O)[C@H](CCCCN)NC(=O)[C@@H](Cc2c[nH]c3ccccc23)NC(=O)[C@H](Cc2ccccc2)NC(=O)[C@@H](NC(=O)[C@H](N)Cc2ccccc2)CSSC[C@@H](C(=O)N[C@H](CO)[C@@H](C)O)NC1=O [octreotide]	94.3	91.9	120	101	109	97.5	101	96	102	101	110	103	110	107	93	98.1	98.9	98.8	115	92.7	103	115	95.6	119	104	0	0	0	0	0	> 10	> 10	> 10	> 10	> 10
CS(=O)(=O)Nc1ccc2oc3c(OC(F)F)ccc(C(=O)Nc4c(Cl)cncc4Cl)c3c2c1 [oglemilast]	91	88.4	100	92.7	81.1	97.6	104	97	101	94.2	102	95.9	96.2	90.5	99.8	96.1	87.9	93.3	86	89.8	108	101	92.2	103	90.1	1.3	0	0	0.6	0	> 10	> 10	> 10	> 10	> 10
CS(=O)(=O)n1cc2c(n1)CN([C@H]1CO[C@H](c3cc(F)ccc3F)[C@@H](N)C1)C2 [omarigliptin]	98.4	97.7	88.4	108	100	97.8	96.8	94.2	101	104	97.8	103	95.5	98.7	103	103	106	101	99.7	103	92.5	101	95.4	97.5	106	0	0	0	0	0	> 10	> 10	> 10	> 10	> 10
CC[N+](C)(CC)CCOC(=O)C(O)(c1ccccc1)C1CCCCC1 (stereo not given) [oxyphenonium]	92.9	106	97.5	99.2	87.2	97.8	100	98.8	98.3	96.6	95.9	97.2	100	99.4	96.8	90.4	94.1	98.1	86.2	99.4	88.6	98.4	88.7	101	95.6	0.1	0	0	0	0	> 10	> 10	> 10	> 10	> 10
O=P(O)(NCCCl)NCCCl [palifosfamide]	91.6	101	99.4	98.8	105	100	94	102	98.9	97.2	93.5	95.9	91.7	98.1	107	100	102	95.3	106	108	94.4	93.7	103	98.4	93.7	0	0	0	0	0	> 10	> 10	> 10	> 10	> 10
NCCC(O)(P(=O)(O)O)P(=O)(O)O [pamidronate]	92.7	111	100	98.9	93.8	98.7	101	95.6	101	99	100	94.8	96.2	97.9	101	106	105	97.5	108	106	87.2	104	106	96	97.2	0	0	0	0	0	> 10	> 10	> 10	> 10	> 10
